The text below walks through data of ChEMBL document CHEMBL1127102, “Structure-activity relationships of 2,3-benzodiazepine compounds with glutamate antagonistic action” (Bioorg Med Chem Lett, 1993).

Test [1] relates to Mus musculus. In words: Tested in vivo for anticonvulsant activity using MES, MMS and IS relative potency compared to GYKI 52466. The test is classed as functional.
For test [2], the species on record is Rattus norvegicus. In words: Tested in vitro for the relative potency against neuronal responses mediated by the non-NMDA type glutamate receptor compared to GYKI 52466. The test is classed as functional.
Test [3] concerns Mus musculus. In words: Tested in vivo for the anticonvulsant activity by MMS test. 95% confidence limits are in brackets. The test is classed as functional.
Test [4] concerns Mus musculus. In words: Tested in vivo for the anticonvulsant activity by IS test. Format: functional.
Test [5] is filed under the species Rattus norvegicus. In words: Tested in vitro for the anticonvulsant activity (IC50 value was determined after 30 min perfusion application by MES test). The test is classed as functional, organism-based. Conditions: 0.5 h.
The subject of test [6] is Mus musculus. In words: Tested in vivo for the anticonvulsant activity by MES test. 95% confidence limits are in brackets. The test is classed as functional.
Test [7] has as its system Mus musculus. In words: Tested in vivo for the oral anticonvulsant activity by MES test. Format: functional.
Test [8] is filed under the species Mus musculus. In words: Tested in vitro for the oral anticonvulsant activity by MES test. The test is classed as functional, organism-based.

Compound `CC1Cc2cc3c(cc2C(c2ccc(N)cc2)=NN1C(=O)CN(C)C)OCO3` (centres undefined) showed a Relative potency in test [1] of 0.
Still for that read-out and setting: the same measure for `CC1Cc2cc3c(cc2C(c2ccc(N)cc2)=NN1C(=O)c1ccccc1)OCO3` (centres undefined): 0.
In turn, `CC1Cc2cc3c(cc2C(c2ccc(N)cc2)=NN1C(=O)C(F)(F)F)OCO3` (centres undefined) gave a Relative potency in test [1] of 0.
Same read-out and setting: in the case of `CC1Cc2cc3c(cc2C(c2ccc(N)cc2)=NN1C(=O)Cc1ccccc1)OCO3` (centres undefined) it was 0; in that of `CC1Cc2cc3c(cc2C(c2ccc(N)cc2)=NN1C(=O)CC#N)OCO3` (centres undefined), 0.21.
For `CNCC(=O)N1N=C(c2ccc(N)cc2)c2cc3c(cc2CC1C)OCO3` (centres undefined), the Relative potency in test [2] is recorded as 0.02; in test [1], 0.
`CC1Cc2cc3c(cc2C(c2ccc(N)cc2)=NN1C(=O)C(C)(C)C)OCO3` (centres undefined) showed a Relative potency in test [1] of 0.
`CC(N)C(=O)N1N=C(c2ccc(N)cc2)c2cc3c(cc2CC1C)OCO3` (centres undefined): the Relative potency in test [2] is on record as 0; in test [1], 0.08.
The like results for `CCCCC(=O)N1N=C(c2ccc(N)cc2)c2cc3c(cc2CC1C)OCO3` (centres undefined) were, in that order, 0.22 and 0.
For `CC1Cc2cc3c(cc2C(c2ccc(N)cc2)=NN1C(=O)Nc1ccccc1)OCO3` (centres undefined), the Relative potency in test [1] is 0.13.
In the case of `CC1Cc2cc3c(cc2C(c2ccc(N)cc2)=NN1C(=O)C1CC1)OCO3` (centres undefined), the Relative potency was 1.48 in test [2] and 1.66 in test [1].
For the compound `COCC(=O)N1N=C(c2ccc(N)cc2)c2cc3c(cc2CC1C)OCO3` (centres undefined), in test [1], the Relative potency is on record as 1.02.
`CC1Cc2cc3c(cc2C(c2ccc(N)cc2)=NN1C(=O)CN)OCO3` (centres undefined): the figures for the Relative potency in test [2] and in test [1] were 0.1 and 0, respectively.
For `CCC(=O)N1N=C(c2ccc(N)cc2)c2cc3c(cc2CC1C)OCO3` (centres undefined) the same measures were 1.55 and 2.55.
With `CC1Cc2cc3c(cc2C(c2ccc(N)cc2)=NN1C=O)OCO3` (centres undefined), the values for the Relative potency in test [2] and in test [1] were 0.44 and 1.72, respectively.
For the compound `CCCCNC(=O)N1N=C(c2ccc(N)cc2)c2cc3c(cc2CC1C)OCO3` (centres undefined), the Relative potency came out at 0.65 in test [2] and 0.35 in test [1].
For `CC1=NN=C(c2ccc(N)cc2)c2cc3c(cc2C1)OCO3` [GYKI-52466], the values for the ED50 in test [3], in test [4] and in test [6] were 107 mg/kg, 45.1 mg/kg and 30.6 mg/kg, respectively. Further, in test [5], it took 29.5 µM to reach half-maximal inhibition (IC50).
With `CNC(=O)N1N=C(c2ccc(N)cc2)c2cc3c(cc2CC1C)OCO3` (centres undefined) [GYKI-53655], in test [7], the ED50 (usually the dose at which the effect has come halfway, by size or by number of responders) came to 8.4 mg/kg. Further, the IC50 (in general, the concentration at which inhibition is half-maximal) in test [8] amounted to 12 µM. Also, the Relative potency amounted to 2.46 in test [2] and 4.39 in test [1].
For the compound `CC(=O)N1N=C(c2ccc(N)cc2)c2cc3c(cc2C[C@H]1C)OCO3` [TALAMPANEL], the Relative potency in test [2] is 1.12; in test [1], 2.74.
